Test results published in the supplement of paper PMC11061612.

Columns and labels:
[1] = test system: COLO-684 (Endometrial Carcinoma); experiment: combination Emax (second highest fraction inhibited in the dose matrix, 72 h); higher = more inhibition; extreme values may be limits of the assay
Summary of the method: (§1)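 Cell lines grown in DMEM/F12 or RPMI with 10% FBS were plated in 1536-well plates and held 24 hours at 37°C, 5% CO2 before 72 hours of exposure to two-drug dose matrices, with DMSO typically at 0.2%. CellTiter-Glo 2.0 luminescence gave viability, which was converted to inhibition. Vehicle wells were set to 0 and blank wells to 1. Combination Emax is the second-highest inhibition in the matrix, and Bliss excess is the observed combination effect minus the expected EA + EB − EA·EB, where EA and EB are the single-agent effects.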

[2] = test system: HCC-44 (Lung Adenocarcinoma); experiment: as above
Summary of the method: as §1

[3] = test system: EB-3 (Burkitt's Lymphoma); experiment: as above
Summary of the method: as §1

[4] = test system: LAMA-84 (Chronic Myelogenous Leukemia); experiment: as above
Summary of the method: as §1

[5] = test system: NCI-H1755 (Lung Adenocarcinoma); experiment: as above
Summary of the method: as §1

[6] = test system: CML-T1 (Chronic Myelogenous Leukemia); experiment: as above
Summary of the method: as §1

[7] = test system: FLO-1 (Esophageal Adenocarcinoma); experiment: as above
Summary of the method: as §1

[8] = test system: LOUCY (T-Lymphoblastic Leukemia); experiment: as above
Summary of the method: as §1

[9] = test system: OV-90 (Ovarian Carcinoma); experiment: as above
Summary of the method: as §1

[10] = test system: RMG-I (Ovarian Carcinoma); experiment: as above
Summary of the method: as §1

[11] = test system: SW684 (Other Solid Carcinomas); experiment: as above
Summary of the method: as §1

CHL-1 (Melanoma) [12] = experiment: as above
Summary of the method: as §1

[13] = test system: SK-MM-2 (Plasma Cell Myeloma); experiment: as above
Summary of the method: as §1

[14] = test system: Becker (Low Grade Glioma); experiment: as above
Summary of the method: as §1

[15] = test system: KYSE-70 (Esophageal Squamous Cell Carcinoma); experiment: as above
Summary of the method: as §1

[16] = test system: NCI-H810 (Non-Small Cell Lung Carcinoma); experiment: as above
Summary of the method: as §1

KYM-1 (Rhabdomyosarcoma) [17] = experiment: as above
Summary of the method: as §1

[18] = test system: PANC-02-03 (Pancreatic Carcinoma); experiment: as above
Summary of the method: as §1

[19] = test system: PC-14 (Lung Adenocarcinoma); experiment: as above
Summary of the method: as §1

[20] = test system: NKM-1 (Acute Myeloid Leukemia); experiment: as above
Summary of the method: as §1

[21] = test system: COLO-684 (Endometrial Carcinoma); experiment: Bliss excess, mean over the matrix (fraction); higher = more synergy
Summary of the method: as §1

[22] = test system: HCC-44 (Lung Adenocarcinoma); experiment: as above
Summary of the method: as §1

[23] = test system: EB-3 (Burkitt's Lymphoma); experiment: as above
Summary of the method: as §1

[24] = test system: LAMA-84 (Chronic Myelogenous Leukemia); experiment: as above
Summary of the method: as §1

[25] = test system: NCI-H1755 (Lung Adenocarcinoma); experiment: as above
Summary of the method: as §1

[26] = test system: CML-T1 (Chronic Myelogenous Leukemia); experiment: as above
Summary of the method: as §1

[27] = test system: FLO-1 (Esophageal Adenocarcinoma); experiment: as above
Summary of the method: as §1

[28] = test system: LOUCY (T-Lymphoblastic Leukemia); experiment: as above
Summary of the method: as §1

[29] = test system: OV-90 (Ovarian Carcinoma); experiment: as above
Summary of the method: as §1

[30] = test system: RMG-I (Ovarian Carcinoma); experiment: as above
Summary of the method: as §1

[31] = test system: SW684 (Other Solid Carcinomas); experiment: as above
Summary of the method: as §1

CHL-1 (Melanoma) [32] = experiment: as above
Summary of the method: as §1

[33] = test system: SK-MM-2 (Plasma Cell Myeloma); experiment: as above
Summary of the method: as §1

[34] = test system: Becker (Low Grade Glioma); experiment: as above
Summary of the method: as §1

[35] = test system: KYSE-70 (Esophageal Squamous Cell Carcinoma); experiment: as above
Summary of the method: as §1

[36] = test system: NCI-H810 (Non-Small Cell Lung Carcinoma); experiment: as above
Summary of the method: as §1

KYM-1 (Rhabdomyosarcoma) [37] = experiment: as above
Summary of the method: as §1

[38] = test system: PANC-02-03 (Pancreatic Carcinoma); experiment: as above
Summary of the method: as §1

[39] = test system: PC-14 (Lung Adenocarcinoma); experiment: as above
Summary of the method: as §1

[40] = test system: NKM-1 (Acute Myeloid Leukemia); experiment: as above
Summary of the method: as §1
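For Bliss excess, mean over the matrix in this document: after 72 h of two-drug dosing.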

Row | Compound | combination Emax [1] | combination Emax [2] | combination Emax [3] | combination Emax [4] | combination Emax [5] | combination Emax [6] | combination Emax [7] | combination Emax [8] | combination Emax [9] | combination Emax [10] | combination Emax [11] | combination Emax (CHL-1 (Melanoma) [12]) | combination Emax [13] | combination Emax [14] | combination Emax [15] | combination Emax [16] | combination Emax (KYM-1 (Rhabdomyosarcoma) [17]) | combination Emax [18] | combination Emax [19] | combination Emax [20] | Bliss excess [21] | Bliss excess [22] | Bliss excess [23] | Bliss excess [24] | Bliss excess [25] | Bliss excess [26] | Bliss excess [27] | Bliss excess [28] | Bliss excess [29] | Bliss excess [30] | Bliss excess [31] | Bliss excess (CHL-1 (Melanoma) [32]) | Bliss excess [33] | Bliss excess [34] | Bliss excess [35] | Bliss excess [36] | Bliss excess (KYM-1 (Rhabdomyosarcoma) [37]) | Bliss excess [38] | Bliss excess [39] | Bliss excess [40]
1 | C=CCn1c(=O)c2cnc(Nc3ccc(N4CCN(C)CC4)cc3)nc2n1-c1cccc(C(C)(C)O)n1 [AZD1775] + CCc1c2c(nc3ccc(O)cc13)-c1cc3c(c(=O)n1C2)COC(=O)[C@]3(O)CC [SN-38] (first compound max 1 µM, partner max 0.3 µM) | 0.906 | 0.935 | 0.884 | 0.993 | 0.827 | 1 | 0.897 | 0.995 | 0.537 | 0.524 | 0.493 | 0.833 | 0.794 | 0.903 | 0.599 | 0.634 | 0.958 | 0.706 | 0.929 | 0.997 | -0.0122 | 0.0458 | -0.0467 | -0.0202 | 0.0139 | -0.002 | 0.0261 | 0.0229 | -0.101 | -0.0848 | 0.0144 | 0.0518 | 0.0271 | -0.0094 | -0.0358 | -0.0454 | -0.0535 | 0.0042 | -0.0001 | 0.0008
2 | C=CCn1c(=O)c2cnc(Nc3ccc(N4CCN(C)CC4)cc3)nc2n1-c1cccc(C(C)(C)O)n1 [AZD1775] + Nc1ccn([C@@H]2O[C@H](CO)[C@@H](O)C2(F)F)c(=O)n1 [Gemcitabine] (first compound max 1 µM, partner max 0.3 µM) | 0.718 | 0.916 | 0.811 | 0.963 | 0.786 | 0.998 | 0.904 | 0.995 | 0.555 | 0.401 | 0.382 | 0.725 | 0.623 | 0.584 | 0.565 | 0.828 | 0.999 | 0.588 | 0.917 | 1 | -0.0674 | 0.0711 | 0.0105 | 0.0286 | 0.0304 | 0.0273 | 0.0955 | 0.108 | -0.0166 | -0.0608 | -0.0333 | 0.0089 | 0.0664 | 0.0271 | -0.002 | -0.0695 | 0.0009 | 0.0035 | 0.0198 | 0.0002
3 | CN(CCO)CC[C@H](CSc1ccccc1)Nc1ccc(S(=O)(=O)NC(=O)c2ccc(N3CCC([C@@H](O)c4ccccc4-c4ccc(Cl)cc4)CC3)cc2)cc1S(=O)(=O)C(F)(F)F [AZD4320] + CC(=O)O[C@H]1C(=O)[C@@]2(C)[C@H]([C@H](OC(=O)c3ccccc3)[C@]3(O)C[C@H](OC(=O)[C@H](O)[C@@H](NC(=O)c4ccccc4)c4ccccc4)C(C)=C1C3(C)C)[C@]1(OC(C)=O)CO[C@@H]1C[C@@H]2O [Paclitaxel] (first compound max 1 µM, 7x7, partner max 3 µM) | 0.663 | 0.876 | 0.754 | 1 | 0.9 | 1 | 0.98 | 1 | 0.932 | 0.94 | 0.952 | 1 | 1 | 1 | 0.597 | 0.992 | 1 | 0.597 | 0.996 | 1 | 0.0345 | -0.0294 | -0.0733 | 0.0001 | 0.0211 | -0.0236 | 0.0005 | 0.0229 | 0.0935 | 0.133 | 0.164 | 0.0578 | 0.0531 | 0.0744 | 0.0722 | 0.237 | 0.017 | 0.0109 | 0.0125 | 0.0078
4 | CN(CCO)CC[C@H](CSc1ccccc1)Nc1ccc(S(=O)(=O)NC(=O)c2ccc(N3CCC([C@@H](O)c4ccccc4-c4ccc(Cl)cc4)CC3)cc2)cc1S(=O)(=O)C(F)(F)F [AZD4320] + CS(=O)(=O)CCNCc1ccc(-c2ccc3ncnc(Nc4ccc(OCc5cccc(F)c5)c(Cl)c4)c3c2)o1 [Lapatinib] (first compound max 1 µM, 7x7, partner max 10 µM) | 0.34 | 0.472 | 0.605 | 0.989 | 0.702 | 1 | 0.842 | 1 | 0.849 | 0.972 | 0.823 | 0.718 | 1 | 0.912 | 0.177 | 0.518 | 0.395 | 0.875 | 0.964 | 1 | -0.0766 | -0.0303 | -0.0721 | 0.0411 | 0.0015 | -0.0077 | 0.0298 | 0.0586 | -0.02 | 0.0763 | -0.0169 | 0.0412 | 0.0729 | 0.0497 | -0.0022 | -0.0665 | 0.021 | 0.0082 | 0.0043 | 0.0418
5 | CN(CCO)CC[C@H](CSc1ccccc1)Nc1ccc(S(=O)(=O)NC(=O)c2ccc(N3CCC([C@@H](O)c4ccccc4-c4ccc(Cl)cc4)CC3)cc2)cc1S(=O)(=O)C(F)(F)F [AZD4320] + Nc1ccn([C@@H]2O[C@H](CO)[C@@H](O)C2(F)F)c(=O)n1 [Gemcitabine] (first compound max 1 µM, 7x7, partner max 0.3 µM) | 0.429 | 0.641 | 0.469 | 0.979 | 0.463 | 1 | 0.776 | 1 | 0.88 | 0.866 | 0.524 | 0.686 | 1 | 0.8 | 0.159 | 0.593 | 1 | 0.482 | 0.699 | 1 | -0.0157 | 0.0237 | 0.0031 | 0.0346 | -0.0211 | -0.0189 | 0.0443 | 0.0431 | 0.0718 | 0.0063 | -0.0442 | 0.0768 | 0.0061 | 0.0818 | -0.0342 | -0.0458 | 0.001 | -0.071 | 0.0292 | 0.0029
6 | C[C@@H]1COCCN1c1cc(C2([S@](C)(=N)=O)CC2)nc(-c2ccnc3[nH]ccc23)n1 [AZD6738] + C1CC(C1)(C(=O)[O-])C(=O)[O-].N.N.[Pt+2] [Carboplatin] (first compound max 10 µM, 7x7, partner max 10 µM) | 0.756 | 0.288 | 0.751 | 0.92 | 0.807 | 0.976 | 0.619 | 0.972 | 0.345 | 0.337 | 0.342 | 0.798 | 0.319 | 0.648 | 0.266 | 0.458 | 0.904 | 0.433 | 0.807 |  | -0.0356 | -0.0585 | -0.0876 | -0.0368 | -0.0571 | -0.031 | -0.0416 | 0.0054 | -0.0638 | -0.0502 | -0.0968 | -0.0178 | -0.0045 | -0.0224 | -0.0571 | -0.116 | 0.0183 | -0.0433 | -0.0164 | -0.0102
